Data: patent US10196425B2, “Peptide compositions” (RHYTHM PHARMACEUTICALS, INC., priority 2013, dated 2019)
Like-named read-outs stand apart in the source and are kept apart here. Bridge positions count the residues as written; N and C are the ends. Square brackets hold non-standard residues; d marks the D form. Peptide text beside a SMILES is read from it. Pen = CC(C)(S)[C@H](N)C(=O)O; hCys = N[C@@H](CCS)C(=O)O

Assays:
Assay type in all cases: cell-based
[1] = biological target: MC1R (Homo sapiens, UniProt Q01726); experiment: cAMP assay (β-galactosidase reporter, cAMP Hunter), MC1R; settings: for Ratios of EC50 values MC ¼: EC50(MC1R)/EC50(MC4R)
From the text: (§1) cAMP Accumulation Measurement Via a β-Galactosidase (β-Gal) Reporter System
(§2) A chemiluminescence readout system that uses an enzyme fragment complementation (EFC) system with β-galactosidase (β-Gal) as the functional reporter system was used. This assay system for various melanocortin receptor systems is commercially available (cAMP Hunter GPCR assay system, Discoverx Corp, Fremont, Calif.). This assay utilizes the β-Gal enzyme that is split into two complementary portions; EA for Enzyme Acceptor and ED for Enzyme Donor. In the assay, the ED portion fused to cAMP is made to compete with cAMP generated by cells for binding to a cAMP-specific antibody. The EA is then added to form active β-Gal with any unbound ED-cAMP.
(§3) Briefly, 10000 cells per well are plated overnight and each well (cells incubated with 10 μl assay buffer) is then incubated with 4× serial concentration of the test compound in the cell assay buffer (5 μL) and cAMP antibody reagent (5 μL) for 30 min at 37° C. The cell lysis buffer (20 μL) containing ED-cAMP coupled enzyme fragment and the reporter substrate (Emerald II-Galacton Star, 5:1) is then added and incubated for 60 min at room temperature. Next, 20 μL of EA β-Gal fragment reagent is added.

[2] = biological target: MC3R (Homo sapiens, UniProt P41968); experiment: cAMP assay (β-galactosidase reporter, cAMP Hunter), MC3R; settings: for Ratios of EC50 values MC ¾: EC50(MC3R)/EC50(MC4R)
From the text: as §1, §2, §3

[3] = biological target: MC4R (Homo sapiens, UniProt P32245); experiment: cAMP assay (β-galactosidase reporter, cAMP Hunter), MC4R
From the text: as §1, §2, §3

[4] = biological target: MC5R (Homo sapiens, UniProt P33032); experiment: cAMP assay (β-galactosidase reporter, cAMP Hunter), MC5R; settings: for Ratios of EC50 values MC 5/4: EC50(MC5R)/EC50(MC4R)
From the text: as §1, §2, §3

[5] = agonist cAMP stimulation, read-out: cAMP Assay (EC-50) MC1R
[6] = agonist cAMP stimulation, read-out: cAMP Assay (EC-50) MC3R
[7] = agonist cAMP stimulation, read-out: cAMP Assay (EC-50) MC4R
[8] = agonist cAMP stimulation, read-out: cAMP Assay (EC-50) MC5R

Chain of MC1R (Q01726 whole entry): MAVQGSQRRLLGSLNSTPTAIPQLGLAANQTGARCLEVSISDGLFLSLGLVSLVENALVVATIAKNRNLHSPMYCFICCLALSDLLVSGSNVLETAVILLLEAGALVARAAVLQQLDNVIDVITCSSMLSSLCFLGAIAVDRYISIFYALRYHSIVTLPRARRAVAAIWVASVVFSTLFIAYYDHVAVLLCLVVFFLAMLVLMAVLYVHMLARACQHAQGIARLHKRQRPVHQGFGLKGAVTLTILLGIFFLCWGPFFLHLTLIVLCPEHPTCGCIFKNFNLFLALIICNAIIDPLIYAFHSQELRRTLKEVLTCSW
Chain of MC4R (P32245 whole entry): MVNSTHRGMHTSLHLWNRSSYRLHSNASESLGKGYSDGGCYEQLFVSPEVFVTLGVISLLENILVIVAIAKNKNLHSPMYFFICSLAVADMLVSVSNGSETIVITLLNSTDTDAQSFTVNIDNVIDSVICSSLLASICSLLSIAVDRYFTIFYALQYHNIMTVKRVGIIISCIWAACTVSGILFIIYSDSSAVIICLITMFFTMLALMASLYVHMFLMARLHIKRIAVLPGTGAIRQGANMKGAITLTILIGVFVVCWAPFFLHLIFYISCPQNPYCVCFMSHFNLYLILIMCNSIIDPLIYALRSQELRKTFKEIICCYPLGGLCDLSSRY
Chain of MC3R (P41968 whole entry): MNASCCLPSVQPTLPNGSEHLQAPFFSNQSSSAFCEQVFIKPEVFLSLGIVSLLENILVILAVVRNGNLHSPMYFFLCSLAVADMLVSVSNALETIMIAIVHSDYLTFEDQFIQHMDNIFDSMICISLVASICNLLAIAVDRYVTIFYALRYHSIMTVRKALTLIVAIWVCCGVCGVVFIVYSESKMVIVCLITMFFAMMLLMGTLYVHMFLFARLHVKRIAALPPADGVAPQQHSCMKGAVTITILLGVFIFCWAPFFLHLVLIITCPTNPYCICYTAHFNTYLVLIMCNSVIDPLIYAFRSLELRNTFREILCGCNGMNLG
Chain of MC5R (P33032 whole entry): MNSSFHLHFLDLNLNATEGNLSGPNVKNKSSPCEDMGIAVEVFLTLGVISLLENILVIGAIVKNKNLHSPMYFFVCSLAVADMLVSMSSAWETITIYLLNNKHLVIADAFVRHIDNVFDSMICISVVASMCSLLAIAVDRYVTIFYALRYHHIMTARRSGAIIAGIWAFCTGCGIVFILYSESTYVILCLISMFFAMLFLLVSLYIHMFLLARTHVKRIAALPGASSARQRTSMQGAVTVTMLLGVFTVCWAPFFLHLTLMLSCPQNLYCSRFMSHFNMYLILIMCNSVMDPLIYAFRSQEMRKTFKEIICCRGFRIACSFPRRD

Ratios of EC50 values MC ¼ [1]	EC50 [1, 5] [nM]	Ratios of EC50 values MC ¾ [2]	EC50 [2, 6] [nM]	EC50 [3, 7] [nM]	Ratios of EC50 values MC 5/4 [4]	EC50 [4, 8] [nM]	SMILES	EC50 [1] [nM]	EC50 [2] [nM]	EC50 [3] [nM]	EC50 [4] [nM]
120	888	420	3160	7.5	>1338	> 10000	CC(=O)N[C@@H](CCCNC(=N)N)C(=O)N[C@H]1CCSSC[C@@H](C(N)=O)NC(=O)[C@H](Cc2c[nH]c3ccccc23)NC(=O)[C@H](CCCNC(=N)N)NC(=O)[C@@H](Cc2ccccc2)NC(=O)[C@@H](C)NC1=O [Compound 16, Ac-Arg-cyclo[hCys-D-Ala-D-Phe-Arg-Trp-Cys]-NH2] (Ac-R[hCys][dA][dF]RWC-NH2; disulfide 2-7)				
15	195	17	233	13.7	159	2180	CC(=O)N[C@@H](CCCNC(=N)N)C(=O)N[C@H]1CCSSC(C)(C)[C@@H](C(N)=O)NC(=O)[C@H](Cc2c[nH]c3ccccc23)NC(=O)[C@H](CCCNC(=N)N)NC(=O)[C@@H](Cc2ccccc2)NC(=O)[C@@H](C)NC1=O [Compound 17, Ac-Arg-cyclo[hCys-D-Ala-D-Phe-Arg-Trp-Pen]-NH2] (Ac-R[hCys][dA][dF]RW[Pen]-NH2; disulfide 2-7)				

SMILES	Ratios of EC50 values MC ¼ [1]	EC50 [1, 5] [nM]	Ratios of EC50 values MC ¾ [2]	EC50 [2, 6] [nM]	EC50 [3, 7] [nM]	Ratios of EC50 values MC 5/4 [4]	EC50 [4, 8] [nM]	EC50 [1] [nM]	EC50 [2] [nM]	EC50 [3] [nM]	EC50 [4] [nM]
CC(=O)N[C@@H](CCC(=O)O)C(=O)N[C@H]1CSSC[C@@H](C(N)=O)NC(=O)[C@H](Cc2c[nH]c3ccccc23)NC(=O)[C@H](CCCNC(=N)N)NC(=O)[C@@H](Cc2ccccc2)NC(=O)[C@H](Cc2c[nH]cn2)NC(=O)[C@H](C)NC1=O [Compound 22, Ac-Glu-cyclo[Cys-Ala-His-D-Phe-Arg-Trp-Cys]-NH2] (Ac-ECAH[dF]RWC-NH2; disulfide 2-8)	>3		>20			>2563		1.7	9.9	< 0.5	1280
